{
  "source": "patent US12055536B2",
  "about": "“Device for detection of cellular stress” (Trustees of Boston University, priority 2021, dated 2024)",
  "format_in_all_cases": "cell-based, human",
  "key": {"COV362 cells": {"test_system": "COV362 cells", "test": "Cell viability assay (dose-response)", "details": "read-out: IC50 for cisplatin", "protocol": "(§1) Cell viability was measured by MTS assay (Abcam, #ab197010) or by CellTiter-Glo™ assay (Promega, #G7570). Cells were seeded at 96-well plates at densities of 2000˜5000 cells per well overnight. Treatment was added to the cells at indicated concentrations for 72 h. Cell viability was measured by incubating with MTS reagent for 4 h and reading absorbance at 490 nm or incubating with CellTier-Glo™ reagent for 10 min and reading luminescence by a plate reader. Six replicates were used for each group.\n(§2) In addition, isogenic PEO1/PEO4 cell lines derived from the same patient were studied, at the time of a platinum sensitive (PEO1) and platinum resistant-recurrence (PEO4).\n(§3) Having shown decreased glucose-derived anabolism and increased fatty acid uptake in cisplatin-resistant ovarian cancer cells, whether this metabolic feature can be used for differentiation of cisplatin-resistant from cisplatin-sensitive cancer cells was explored. […] In Table 2 below, quantitation of glucose-d7 (G-d7), PA-d31, and OA-d34 are shown as area fraction of C-D signal out of total cellular area, in mean values."}, "COV362-cisR cells": {"test_system": "COV362-cisR cells", "test": "Cell viability assay (dose-response)", "details": "read-out: IC50 for cisplatin; COV362-cisR cells", "protocol": "as §1, §2, §3"}, "OVCAR5 cells [1]": {"test_system": "OVCAR5 cells", "test": "Cell viability assay (dose-response)", "details": "read-out: IC50 for cisplatin; OVCAR5 cells", "protocol": "as §1, §2, §3"}, "OVCAR5-cisR cells [2]": {"test_system": "OVCAR5-cisR cells", "test": "Cell viability assay (dose-response)", "details": "read-out: IC50 for cisplatin; OVCAR5-CisR cells", "protocol": "as §1, §2, §3"}, "PEO1 cells [3]": {"test_system": "PEO1 cells", "test": "Cell viability assay (dose-response)", "details": "read-out: IC50 for cisplatin; PE01 cells", "protocol": "as §1, §2, §3"}, "PEO4 cells [4]": {"test_system": "PEO4 cells", "test": "Cell viability assay (dose-response)", "details": "read-out: IC50 for cisplatin; PE04 cells", "protocol": "as §1, §2, §3"}, "SKOV3-cisR cells": {"test_system": "SKOV3-cisR cells", "test": "Cell viability assay (dose-response)", "details": "read-out: IC50 for cisplatin; SKOV3-CisR cells", "protocol": "as §1, §2, §3"}, "[5]": {"test_system": "cisplatin-resistant OC cell lines", "test": "Cisplatin dose response, resistant versus parental cell lines", "details": "all the resistant cell lines versus parental", "from_the_text": "Ovarian cancer cell lines used in the methods include SKOV3, PEO1, OVCAR5, and COV362, and their cisplatin-resistant counterparts include SKOV3-cisR, PEO4, OVCAR5-cisR, and COV362-cisR. SKOV3 (Cat #: HTB-77), Mia Paca2 (Cat #: CRL-1420), MDA-MB-231 (Cat #: CRM-HTB-26) and A549 (Cat #: CCL-185) cells were purchased from the American Type Culture Collection (ATCC, Manassas, VA). PEO1 (Cat #: 10032308) and PEO4 (Cat #: 10032309) were purchased from Sigma Aldrich. OVCAR5 cells were a generous gift from Dr. Marcus Peter, Northwestern University, and COV362 cells were from Dr. Kenneth Nephew, Indiana University. All cell lines were authenticated and tested to be mycoplasma negative. Mia Paca2 and A549 are in the list of known misidentified cell lines maintained by the International Cell Line Authentication Committee, while their authentication was performed by ATCC through STR profiling. […] Surviving cells were allowed to recover for 3 to 4 weeks before receiving the next treatment. […]\nCell viability was measured by MTS assay (Abcam, #ab197010) or by CellTiter-Glo™ assay (Promega, #G7570). […] Cell viability was measured by incubating with MTS reagent for 4 h and reading absorbance at 490 nm or incubating with CellTier-Glo™ reagent for 10 min and reading luminescence by a plate reader. […]"}, "PEO1 cells [6]": {"test_system": "PEO1 cells", "test": "OCR and ECAR by Seahorse analysis", "details": "13.2 μM cisplatin", "protocol": "(§4) Cell lines were seeded in a Seahorse® XF96 Cell Culture Microplate (Agilent) at density of 6×10^4 (OVCAR5 pair) or 4×10^4 (PEO pair) per well. After incubation at 37° C. overnight for cell attachment, OCR, and extracellular acidification rate (ECAR) were measured through Seahorse® XFe96 Analyzer (Agilent). Measurement time was 30 seconds following 3 minutes mixture and 30 seconds waiting time. First three cycles were used for basal respiration measurement. […] Basal respiration, ATP production and maximal respiration reduction were calculated following the manufacturer's instructions."}, "PEO4 cells [7]": {"test_system": "PEO4 cells", "test": "OCR and ECAR by Seahorse analysis", "details": "13.2 μM cisplatin", "protocol": "as §4"}, "OVCAR5 cells [8]": {"test_system": "OVCAR5 cells", "test": "Reactive oxidative species measurement (DCFDA)", "details": "cisplatin 1.6 μM or 3.3 μM for 24 hours", "protocol": "(§5) Cellular reactive oxidative species (ROS) was measured using a fluorescent probe, 2′,7′-Dichlorofluorescin diacetate (DCFDA) (Sigma Aldrich). […] DCFDA was added to the medium at final concentration of 10 μM and incubated for 15 min. After washing with PBS for 3 times, cells were immediately imaged under confocal microscope (Zeiss LSM 700 microscope) with 488 nm as the exciting source. Laser power was controlled at low setting to avoid fluorescence extinction. Images at ˜10 field of view were acquired for each sample."}, "OVCAR5-cisR cells [9]": {"test_system": "OVCAR5-cisR cells", "test": "Reactive oxidative species measurement (DCFDA)", "details": "cisplatin 1.6 μM or 3.3 μM for 24 hours", "protocol": "as §5"}, "OVCAR5 cells [10]": {"test_system": "OVCAR5 cells", "test": "Glucose uptake assay (2-NBDG)", "details": "3.3 μM cisplatin for 24 hours, 100 μM 2-NBDG for 2 hours", "protocol": "Glucose uptake was measured using a fluorescent glucose analog 2-deoxy-2-[(7-nitro-2,1,3-benzoxadiazol-4-yl) amino]-D-glucose (2-NBDG) (Cayman Chemicals). Cells seeded in glass-bottom dishes were incubated with 100 μM 2-NBDG for 2 h. Fluorescent images were taken by confocal microscope (Zeiss® LSM 700 microscope) with 488 nm laser as excitation source. Images at ˜10 field of view were acquired for each sample."}, "A549 lung cancer": {"test_system": "A549 lung cancer", "test": "Cell viability assay (dose-response)", "details": "6.6 μM cisplatin", "protocol": "as §1\n(§6) Platinum is widely used across malignancies. […] These findings are broadly applicable to multiple types of cisplatin-resistant cancers. FIG. 8 illustrates the cellular metabolism switch from glycolysis to fatty acid oxidation with decreased glucose uptake, glycolysis and de novo lipogenesis while fatty acid uptake and oxidation are increased."}, "MD-MBA231 breast cancer": {"test_system": "MD-MBA231 breast cancer", "test": "Cell viability assay (dose-response)", "details": "6.6 μM cisplatin", "protocol": "as §1, §6"}, "[11]": {"test_system": "MIA PaCa-2 pancreatic cancer", "test": "Cell viability assay (dose-response)", "details": "6.6 μM cisplatin", "protocol": "as §1, §6"}, "A549 cells": {"test_system": "A549 cells", "test": "Isotope labeling and SRS imaging after cisplatin treatment", "details": "13.2 μM cisplatin for 48 hours, then 100 μM PA-d31 or OA-d34 for 6 h", "protocol": "(§7) For labeling with glucose-d7, media was replaced with glucose-free DMEM medium (Thermo Fisher Scientific, #11966025)+10% FBS+P/S supplemented with 25 mM glucose-d7 after seeding the cells in 35 mm glass-bottom dishes overnight. For labeling with FA or analogs, including PA-d31, OA-d34, and ODYA, FA or analogs were added to the culture media at final concentration of 100 μM and cells were treated for 6 h. For quantitative SRS imaging, cells on glass-bottom dishes were fixed with 10% neutral buffered formalin for 30 min and washed with PBS for 3 times. Hyperspectral SRS imaging was performed to the cells at Raman spectral region from 2100 to 2300 cm^−1.\nas §6"}, "MD-MBA231 cells": {"test_system": "MD-MBA231 cells", "test": "Isotope labeling and SRS imaging after cisplatin treatment", "details": "6.6 μM cisplatin for 24 hours, then 100 μM PA-d31 or OA-d34 for 6 h", "protocol": "as §7, §6"}, "MIA PaCa-2 cells": {"test_system": "MIA PaCa-2 cells", "test": "Isotope labeling and SRS imaging after cisplatin treatment", "details": "6.6 μM cisplatin for 24 hours, then 100 μM PA-d31 or OA-d34 for 6 h", "protocol": "as §7, §6"}},
  "data": [
    {"molecule": "N.N.[Cl][Pt][Cl]", "note": "[cisplatin]", "values": [
      {"measurement": "IC50", "setting": "COV362 cells", "value": 7.19, "unit": "µM"},
      {"measurement": "IC50", "setting": "COV362-cisR cells", "value": 15.2, "unit": "µM"},
      {"measurement": "IC50", "setting": "OVCAR5 cells [1]", "value": 8.26, "unit": "µM"},
      {"measurement": "IC50", "setting": "OVCAR5-cisR cells [2]", "value": 17.4, "unit": "µM"},
      {"measurement": "IC50", "setting": "PEO1 cells [3]", "value": 4.72, "unit": "µM"},
      {"measurement": "IC50", "setting": "PEO4 cells [4]", "value": 13.6, "unit": "µM"},
      {"measurement": "IC50", "setting": "SKOV3-cisR cells", "value": 17.3, "unit": "µM"},
      {"measurement": "increase of IC50 compared to parental counterpart cell lines", "setting": "[5]", "value": "2-3 fold"},
      {"measurement": "ECAR rate", "setting": "PEO1 cells [6]", "value": "promptly lowered"},
      {"measurement": "OCR", "setting": "PEO1 cells [6]; before and 30 minutes after", "value": "slight increase of OCR"},
      {"measurement": "ECAR rate", "setting": "PEO4 cells [7]", "value": "promptly lowered"},
      {"measurement": "OCR", "setting": "PEO4 cells [7]; before and 30 minutes after", "value": "slight increase of OCR"},
      {"measurement": "ROS production (DCF fluorescent signal intensity)", "setting": "OVCAR5 cells [8]", "value": "significant increase of ROS production"},
      {"measurement": "ROS production (DCF fluorescent signal intensity)", "setting": "OVCAR5-cisR cells [9]", "value": "significant increase of ROS production"},
      {"measurement": "glucose uptake, measured by 2-NBDG", "setting": "OVCAR5 cells [10]", "value": "reduced"},
      {"measurement": "cell death", "setting": "A549 lung cancer", "value": "no significant cell death"},
      {"measurement": "cell death", "setting": "MD-MBA231 breast cancer", "value": "no significant cell death"},
      {"measurement": "cell death", "setting": "[11]", "value": "no significant cell death"},
      {"measurement": "PA-d31 and OA-d34 uptake (C-D signal)", "setting": "A549 cells", "value": "significant increase"},
      {"measurement": "PA-d31 and OA-d34 uptake (C-D signal)", "setting": "MD-MBA231 cells", "value": "significant increase"},
      {"measurement": "uptake of PA-d31 and OA-d34 (C-D signal)", "setting": "MIA PaCa-2 cells", "value": "significantly increased"}
    ]}
  ]
}
